# Measurements taken from patent US4355170A, “1-Substituted imidazole derivatives” (Ono Pharmaceutical Co., Ltd., priority 1978, dated 1982).
# pIC50: −log10 of the molar value. Counter-ions that a name gives are not always drawn.
# Target: T1, thromboxane synthetase from rabbit platelet microsomes (Oryctolagus cuniculus, UniProt G1TAZ9)
# T1 construct: thromboxane synthetase from rabbit platelet microsomes; from tissue; host or cells: rabbit platelet microsomes
# T1 sequence (G1TAZ9 1-530): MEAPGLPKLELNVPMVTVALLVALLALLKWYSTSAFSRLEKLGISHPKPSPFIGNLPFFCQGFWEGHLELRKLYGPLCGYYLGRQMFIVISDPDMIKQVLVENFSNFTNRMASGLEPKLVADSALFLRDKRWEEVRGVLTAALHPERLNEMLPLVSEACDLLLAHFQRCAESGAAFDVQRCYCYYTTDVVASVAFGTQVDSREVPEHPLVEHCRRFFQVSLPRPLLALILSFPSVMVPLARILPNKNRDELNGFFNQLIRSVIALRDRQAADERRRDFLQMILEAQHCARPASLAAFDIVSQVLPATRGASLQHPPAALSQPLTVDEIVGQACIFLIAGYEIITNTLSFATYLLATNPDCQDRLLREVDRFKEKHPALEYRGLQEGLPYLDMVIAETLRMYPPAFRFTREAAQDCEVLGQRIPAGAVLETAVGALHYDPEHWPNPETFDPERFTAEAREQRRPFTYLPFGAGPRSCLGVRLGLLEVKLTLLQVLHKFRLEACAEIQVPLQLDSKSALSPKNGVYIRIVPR
# Test: inhibition of thromboxane synthetase from rabbit platelet microsomes (conversion of prostaglandin H2 into thromboxane B2)
# Type: biochemical
# Conditions: not given
row,Structure (SMILES),pIC50
1,CC(CCCCCCn1ccnc1)C(=O)O.Cl (racemic) [1-[(7RS)-7-carboxyoctyl]imidazole hydrochloride],7.52
2,CCOC(=O)C(C)CCCCCCn1ccnc1 (racemic) [1-[(7RS)-7-ethoxycarbonyloctyl]imidazole],6.70
3,"CC(C)(CCCCn1ccnc1)CCC(=O)O [1-(7-carboxy-5,5-dimethylheptyl)imidazole hydrochloride]",7.15
4,CCOC(=O)/C=C/CCCCCn1ccnc1 [(E)-1-(7-ethoxycarbonyl-6-heptenyl)imidazole],5.55
5,O=C(O)/C=C\CCCCCn1ccnc1 [(Z)-1-(7-carboxy-6-heptenyl)imidazole hydrochloride],7.80

# The next lines start with the values.
row,pIC50,Structure (SMILES)
1,6.89,CCCCC(CCCn1ccnc1)C(=O)OCC (racemic) [1-[(4RS)-4-ethoxycarbonyloctyl]imidazole]
2,7.32,CC(CCCCCn1ccnc1)CC(=O)O (racemic) [1-[(6RS)-7-carboxy-6-methylheptyl]imidazole hydrochloride]
3,7.05,"CC(C)(CCCCCCC(=O)O)n1ccnc1 [1-(7-carboxy-1,1-dimethylheptyl)imidazole hydrochloride]"
4,6.00,CCOC(=O)C(C)(C)CCCCCCn1ccnc1 [1-(7-ethoxycarbonyl-7-methyloctyl)imidazole]
5,7.15,O=C(O)/C=C/CCCCCn1ccnc1 [(E)-1-(7-carboxy-6-heptenyl)imidazole hydrochloride]
6,7.25,O=C(O)CCCC/C=C\Cn1ccnc1 [(Z)-1-(7-carboxy-2-heptenyl)imidazole hydrochloride]

# Tested on: arachidonic acid-induced sudden deaths
# Test: inhibitory effect on arachidonic acid-induced sudden deaths of rabbits
# Type: in vivo
# Conditions: oral administration, 100 mg/kg animal body weight
row,Structure (SMILES),inhibitory effect on arachidonic acid-induced sudden deaths of rabbits
1,CC(CCCCCCn1ccnc1)C(=O)O.Cl (racemic) [1-[(7RS)-7-carboxyoctyl]imidazole hydrochloride],inhibitory effect
2,Cl.O=C(O)CCCCC#CCn1ccnc1 [1-(7-carboxy-2-heptynyl)imidazole hydrochloride],inhibitory effect
3,CC(C)(CCCCCCn1ccnc1)C(=O)O.Cl [1-(7-carboxy-7-methyloctyl)imidazole hydrochloride],inhibitory effect

# Tested on: not listed separately
# Test: acute toxicity test, LD50 in mice
# Conditions: mouse, in vivo, iv
row,Structure (SMILES),LD50
1,CC(CCCCCn1ccnc1)C(C)C(=O)O.Cl (stereo not shown) [1-(7-carboxy-6-methyloctyl)imidazole hydrochloride],330 mg/kg

# Tested on: thromboxane synthetase
# Test: inhibitory action for thromboxane synthetase (prior art compounds)
# Type: biochemical
# Conditions: not completely satisfactory as a practical medication
# Description: However, since their inhibitory action for thromboxane synthetase is weak, these compounds are hardly applicable as practically effective medicines.
# On the other hand, N-(6-methoxycarbonylhexyl)imidazole has already been synthesized by P. Matthias et al, and publicly known [Monatsch Chem., 108(5), 1059(1977)].
row,inhibitory effect on thromboxane synthetase compared with imidazole or 1-methylimidazole,Structure (SMILES)
1,stronger inhibitory effect,COC(=O)CCCCCCn1ccnc1 [N-(6-methoxycarbonylhexyl)imidazole]
